In ChEMBL document CHEMBL2413072, “Synthesis and in vitro anticancer studies of novel C-2 arylidene congeners of lantadenes” (2013):

What was measured:
Type in all cases: functional
KM12 = assay: Growth inhibition of human KM12 cells assessed as cell growth at 10 uM by sulforhodamine B assay; details: read-out: Activity
CAKI-1 [1] = assay: Growth inhibition of human CAKI-1 cells assessed as growth inhibition at 10 uM by sulforhodamine B assay; details: read-out: GI
Malme-3M = assay: Growth inhibition of human MALME-3M cells assessed as cell growth at 10 uM by sulforhodamine B assay; details: read-out: Activity
CAKI-1 [2] = assay: Growth inhibition of human CAKI-1 cells assessed as cell growth at 10 uM by sulforhodamine B assay; details: read-out: Activity
OVCAR-8 [3] = assay: Growth inhibition of human OVCAR8 cells assessed as growth inhibition at 10 uM by sulforhodamine B assay; details: read-out: GI
HT-29 [4] = assay: Growth inhibition of human HT-29 cells assessed as cell growth at 10 uM by sulforhodamine B assay; details: read-out: Activity
OVCAR-4 = assay: Growth inhibition of human OVCAR4 cells assessed as growth inhibition at 10 uM by sulforhodamine B assay; details: read-out: GI
A498 = assay: Growth inhibition of human A498 cells assessed as cell growth at 10 uM by sulforhodamine B assay; details: read-out: Activity
SF-268 = assay: Growth inhibition of human SF268 cells assessed as cell growth at 10 uM by sulforhodamine B assay; details: read-out: Activity
UACC-257 [5] = assay: Growth inhibition of human UACC257 cells assessed as cell growth at 10 uM by sulforhodamine B assay; details: read-out: Activity
ACHN = assay: Growth inhibition of human ACHN cells assessed as cell growth at 10 uM by sulforhodamine B assay; details: read-out: Activity
OVCAR-5 = assay: Growth inhibition of human OVCAR5 cells assessed as growth inhibition at 10 uM by sulforhodamine B assay; details: read-out: GI
SK-MEL-5 = assay: Growth inhibition of human SK-MEL-5 cells assessed as growth inhibition at 10 uM by sulforhodamine B assay; details: read-out: GI
SK-OV-3 [6] = assay: Growth inhibition of human SKOV3 cells assessed as growth inhibition at 10 uM by sulforhodamine B assay; details: read-out: GI
HCT-15 = assay: Growth inhibition of human HCT15 cells assessed as cell growth at 10 uM by sulforhodamine B assay; details: read-out: Activity
DU-145 = assay: Growth inhibition of human DU145 cells assessed as growth inhibition at 10 uM by sulforhodamine B assay; details: read-out: GI
LOX IMVI [7] = assay: Growth inhibition of human LOXIMVI cells assessed as cell growth at 10 uM by sulforhodamine B assay; details: read-out: Activity
SF-539 [8] = assay: Growth inhibition of human SF539 cells assessed as growth inhibition at 10 uM by sulforhodamine B assay; details: read-out: GI
[9] = Growth inhibition of human Hs 578T cells assessed as cell growth at 10 uM by sulforhodamine B assay; details: read-out: Activity
UACC-257 [10] = assay: Growth inhibition of human UACC257 cells assessed as growth inhibition at 10 uM by sulforhodamine B assay; details: read-out: GI
CCRF-CEM = assay: Growth inhibition of human CCRF-CEM cells assessed as growth inhibition at 10 uM by sulforhodamine B assay; details: read-out: GI
MOLT-4 = assay: Growth inhibition of human MOLT4 cells assessed as growth inhibition at 10 uM by sulforhodamine B assay; details: read-out: GI
M14 = assay: Growth inhibition of human M14 cells assessed as cell growth at 10 uM by sulforhodamine B assay; details: read-out: Activity
MDA-MB-468 [11] = assay: Growth inhibition of human MDA-MB-468 cells assessed as growth inhibition at 10 uM by sulforhodamine B assay; details: read-out: GI
MCF7 = assay: Growth inhibition of human MCF7 cells assessed as growth inhibition at 10 uM by sulforhodamine B assay; details: read-out: GI
[12] = Growth inhibition of human EKVX cells assessed as cell growth at 10 uM by sulforhodamine B assay; details: read-out: Activity
OVCAR-3 [13] = assay: Growth inhibition of human OVCAR3 cells assessed as growth inhibition at 10 uM by sulforhodamine B assay; details: read-out: GI
MDA-MB-231 = assay: Growth inhibition of human MDA-MB-231 cells assessed as growth inhibition at 10 uM by sulforhodamine B assay; details: read-out: GI
SK-OV-3 [14] = assay: Growth inhibition of human SKOV3 cells assessed as cell growth at 10 uM by sulforhodamine B assay; details: read-out: Activity
SK-MEL-2 = assay: Growth inhibition of human SK-MEL-2 cells assessed as growth inhibition at 10 uM by sulforhodamine B assay; details: read-out: GI
MDA-MB-435 = assay: Growth inhibition of human MDA-MB-435 cells assessed as growth inhibition at 10 uM by sulforhodamine B assay; details: read-out: GI
OVCAR-8 [15] = assay: Growth inhibition of human OVCAR8 cells assessed as cell growth at 10 uM by sulforhodamine B assay; details: read-out: Activity
SNB-75 = assay: Growth inhibition of human SNB75 cells assessed as growth inhibition at 10 uM by sulforhodamine B assay; details: read-out: GI
HT-29 [16] = assay: Growth inhibition of human HT-29 cells assessed as growth inhibition at 10 uM by sulforhodamine B assay; details: read-out: GI
LOX IMVI [17] = assay: Growth inhibition of human LOXIMVI cells assessed as growth inhibition at 10 uM by sulforhodamine B assay; details: read-out: GI
[18] = Growth inhibition of human NCI-ADR-RES cells assessed as cell growth at 10 uM by sulforhodamine B assay; details: read-out: Activity
PC-3 = assay: Growth inhibition of human PC3 cells assessed as growth inhibition at 10 uM by sulforhodamine B assay; details: read-out: GI
MDA-MB-468 [19] = assay: Growth inhibition of human MDA-MB-468 cells assessed as cell growth at 10 uM by sulforhodamine B assay; details: read-out: Activity
UO-31 = assay: Growth inhibition of human UO31 cells assessed as cell growth at 10 uM by sulforhodamine B assay; details: read-out: Activity
T47D = assay: Growth inhibition of human T47D cells assessed as growth inhibition at 10 uM by sulforhodamine B assay; details: read-out: GI
[20] = Growth inhibition of human HCC2998 cells assessed as cell growth at 10 uM by sulforhodamine B assay; details: HCC 2998, read-out: Activity
OVCAR-3 [21] = assay: Growth inhibition of human OVCAR3 cells assessed as cell growth at 10 uM by sulforhodamine B assay; details: read-out: Activity
SF-539 [22] = assay: Growth inhibition of human SF539 cells assessed as cell growth at 10 uM by sulforhodamine B assay; details: read-out: Activity
[23] = Growth inhibition of human HCC2998 cells assessed as growth inhibition at 10 uM by sulforhodamine B assay; details: HCC 2998, read-out: GI
RPMI-8226 = assay: Growth inhibition of human RPMI8226 cells assessed as growth inhibition at 10 uM by sulforhodamine B assay; details: read-out: GI
U-251 = assay: Growth inhibition of human U251 cells assessed as cell growth at 10 uM by sulforhodamine B assay; details: read-out: Activity
NCI-H226 = assay: Growth inhibition of human NCI-H226 cells assessed as growth inhibition at 10 uM by sulforhodamine B assay; details: read-out: GI
SF-295 = assay: Growth inhibition of human SF295 cells assessed as growth inhibition at 10 uM by sulforhodamine B assay; details: read-out: GI
HOP-62 = assay: Growth inhibition of human HOP62 cells assessed as growth inhibition at 10 uM by sulforhodamine B assay; details: read-out: GI

`CC1(C)C[C@@H](O)[C@]2(C(=O)O)CC[C@]3(C)C(=CC[C@@H]4[C@@]5(C)C/C(=C\C=C\c6ccccc6)C(=O)C(C)(C)[C@@H]5CC[C@]43C)[C@@H]2C1` showed a growth at 10 µM (KM12) of 31.8%, an inhibition of growth at 10 µM (CAKI-1 [1]) of 57% and a growth at 10 µM (Malme-3M) of 84.5%. The growth at 10 µM (CAKI-1 [2]) was 43%, the inhibition of growth at 10 µM (OVCAR-8 [3]) was 57% and the growth at 10 µM (HT-29 [4]) was 51.7%. The inhibition of growth at 10 µM (OVCAR-4) was 45.8%, the growth at 10 µM (A498) was 95.7% and the growth at 10 µM (SF-268) was 70.7%. The growth at 10 µM (UACC-257 [5]) was 62%, the growth at 10 µM (ACHN) was 41.9% and the inhibition of growth at 10 µM (OVCAR-5) was < 10%. The inhibition of growth at 10 µM (SK-MEL-5) was 26.3%, the inhibition of growth at 10 µM (SK-OV-3 [6]) was 14.3% and the growth at 10 µM (HCT-15) was 35.2%. For the same compound, the inhibition of growth at 10 µM (DU-145) was 28.8%, the growth at 10 µM (LOX IMVI [7]) was 61.4% and the inhibition of growth at 10 µM (SF-539 [8]) was < 10%. It also gave a growth at 10 µM [9] of 58.4%, an inhibition of growth at 10 µM (UACC-257 [10]) of 38% and an inhibition of growth at 10 µM (CCRF-CEM) of 80.1%. For the same compound, the inhibition of growth at 10 µM (MOLT-4) was 55.6%, the growth at 10 µM (M14) was 72.9% and the inhibition of growth at 10 µM (MDA-MB-468 [11]) was 27.4%. The inhibition of growth at 10 µM (MCF7) was 66.2%, the growth at 10 µM [12] was 39.4% and the inhibition of growth at 10 µM (OVCAR-3 [13]) was 42.7%. The inhibition of growth at 10 µM (MDA-MB-231) was 31.1%, the growth at 10 µM (SK-OV-3 [14]) was 85.7% and the inhibition of growth at 10 µM (SK-MEL-2) was 35.4%. For the same compound, the inhibition of growth at 10 µM (MDA-MB-435) was 27.7%, the growth at 10 µM (OVCAR-8 [15]) was 43% and the inhibition of growth at 10 µM (SNB-75) was 27.9%. It also gave an inhibition of growth at 10 µM (HT-29 [16]) of 48.3%, an inhibition of growth at 10 µM (LOX IMVI [17]) of 38.6% and a growth at 10 µM [18] of 76.2%. For the same compound, the inhibition of growth at 10 µM (PC-3) was 58.5%, the growth at 10 µM (MDA-MB-468 [19]) was 72.6% and the growth at 10 µM (UO-31) was 40.3%. For the same compound, the inhibition of growth at 10 µM (T47D) was 62.4%, the growth at 10 µM [20] was 82.8% and the growth at 10 µM (OVCAR-3 [21]) was 57.3%. The growth at 10 µM (SF-539 [22]) was 91.9%, the inhibition of growth at 10 µM [23] was 17.2% and the inhibition of growth at 10 µM (RPMI-8226) was 84.4%. It also gave a growth at 10 µM (U-251) of 33.6%, an inhibition of growth at 10 µM (NCI-H226) of 27.7% and an inhibition of growth at 10 µM (SF-295) of 76.5%. It also gave an inhibition of growth at 10 µM (HOP-62) of 37.2%.
